Here are results for one molecule from PMC10678405, “2126. Safety, Tolerability, and Pharmacokinetics (PK) in Healthy Participants Following Single Dose Administration of Zosurabalpin, a Novel Pathogen-Specific Antibiotic for the Treatment of Serious Acinetobacter Infections” (Open Forum Infectious Diseases, 2023).

The conditions of data set [1]: single IV dose; for dose proportionality of plasma exposures (Cmax and AUCinf): healthy participants. From the text:
(§1) Methods The entry-into-human study (BP41732) was a double-blind, placebo-controlled, randomized, single-and multiple ascending dose study in healthy participants. In Part 1 (SAD) of Study BP41732, participants were randomized 3:1 to receive IV zosurabalpin or placebo in sequential single ascending dose cohorts. The mass balance study (BP43532) was a non-randomized, non-controlled, open-label, single IV dose study in healthy male participants. […] Disclosures Andreas Guenther, PhD, F. Hoffmann-La Roche Ltd: Employee Amanda Messer, BPharm, Roche Products Ltd: Employee Mylène Giraudon, PharmD, F. Hoffmann-La Roche Ltd: Employee Katie Patel, MSc, Roche Products Limited: Employer|Roche Products Limited: Stocks/Bonds Erik J. Deurloo, MSc, F. Hoffmann-La Roche Ltd: Salary|F. Hoffmann-La Roche Ltd: Stocks/Bonds Michael Lobritz, MD, PhD, Roche: full time employee|Roche: full time employee

Data set [2] deals with healthy participants.
Source text: as §1

[3] abbreviates: healthy male participants, study BP43532, average.
Where [4] appears, read: healthy participants, single IV dose 10 mg to 2000 mg.

Structures are written as SMILES. Read-outs that look alike come from different tables or passages of the source.

As for `CN1C(=O)[C@H](CCCCN)NC(=O)[C@H](CCCN)NCc2cccnc2Sc2cccc(-c3ccc(C(=O)O)cc3)c2CNC(=O)[C@@H]1Cc1c[nH]c2ccccc12` [zosurabalpin, Zosurabalpin], in data set [1] (setting [3]), the “total [14C]-radioactivity recovered in feces, % of the administered dose” value is reported as 48.0 % of the administered dose and the “total [14C]-radioactivity recovered in urine, % of the administered dose” value is listed as 52.6 % of the administered dose. For the same molecule, the “dose proportionality of plasma exposures (Cmax and AUCinf)” value in data set [1] (above 1000 mg up to 2000 mg) is listed as “more than dose-proportionally”. Further, the “dose proportionality of plasma exposures (Cmax and AUCinf)” value in data set [1] (up to 1000 mg) is “increased approximately dose-proportionally”. In addition, in data set [2] (healthy male and female participants, single IV dose 10 mg to 2000 mg, studies BP41732 Part 1 (SAD) and BP43532, preliminary data), the “treatment-related infusion-related reactions (IRRs), participants affected / participants dosed” value was 9/64. Also, in data set [2] (setting [4]), the “changes in laboratory values, ECGs or vital signs compared to placebo” value is recorded as “did not show any clinically significant changes” and the “dose dependence of IRR occurrence” value is given as “appeared to be dose-dependent”. Moreover, in data set [2] (healthy participants, single IV doses of 10 mg to 2000 mg), the “overall safety and tolerability” value is “safe and overall well tolerated”.
